Assay results: patent US20200405697A1, “Antitumor Agent” (Taiho Pharmaceutical Co., Ltd, priority 2017, published 2020)

Assays:
[1] = system: MV-4-11 (Human blood cancer cell line); assay: Effect of combination of sulfonamide compound and other antitumor agent (CellTiter-Glo, combination index): MV-4-11
Experimental: (§1) Each cell line was seeded at 90 L/well to a 96-well culture plate (Thermo Fisher Scientific, Inc.) according to the above tables. The cell-seeded plate was cultured in an incubator set to 37° C. and 500 CO2. On the day following seeding, varying concentrations of the sulfonamide compound and the other antitumor agent were added in combination to the cells. […] The serial dilutions of each compound, or DW was added at 5μL/well to the plate such that each compound and DW, or the sulfonamide compound and the other antitumor agent were combined. […] The plate after the addition was cultured at 37° C. for 3 days under 5% CO2 conditions.
(§2) Three days later, CellTiter-Glo(R) 2.0 Reagent (Promega Corporation) was added at 100 μL/well, and the amount of luminescence was measured using a plate reader EnSpire(R) Multimode Plate Reader (PerkinElmer Co., Ltd.).
(§3) An average value from 3 wells was calculated as to each drug condition from the obtained data, and cell survival rate normalized against control wells supplemented with the vehicle (DW) was calculated. A Fa (fractional inhibition) value was calculated by subtracting the cell survival rate from 1.

[2] = system: A549 (Human lung cancer cell line); assay: Effect of combination of sulfonamide compound and other antitumor agent (CellTiter-Glo, combination index): A549
Experimental: as §1, §2, §3

[3] = system: CFPAC-1 (Human pancreatic cancer cell line); assay: Effect of combination of sulfonamide compound and other antitumor agent (CellTiter-Glo, combination index): CFPAC-1;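 also: cells exposed to both agents together for 3 days, viability read by luminescence, normalized to vehicle-treated control wells, mean of triplicate wells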
Experimental: as §1, §2, §3

[4] = Example Compound 5 247 nM + Decitabine 50.2 nM
[5] = Example Compound 5 370 nM + Decitabine 75.2 nM
[6] = Example Compound 5 555 nM + Decitabine 113 nM
[7] = Example Compound 5 833 nM + Decitabine 169 nM
[8] = Example Compound 5 1250 nM + Decitabine 254 nM
[9] = Example Compound 14 519 nM + Decitabine 50.1 nM
[10] = Example Compound 14 778 nM + Decitabine 75.2 nM
[11] = Example Compound 14 1170 nM + Decitabine 113 nM
[12] = Example Compound 14 1750 nM + Decitabine 169 nM
[13] = Example Compound 14 2630 nM + Decitabine 254 nM
[14] = Example Compound 209A 64.4 nM + Decitabine 33.4 nM
[15] = Example Compound 209A 96.6 nM + Decitabine 50.1 nM
[16] = Example Compound 209A 217 nM + Decitabine 113 nM
[17] = Example Compound 209A 326 nM + Decitabine 169 nM
[18] = Example Compound 235A 90.1 nM + Decitabine 33.4 nM
[19] = Example Compound 235A 135 nM + Decitabine 50.1 nM
[20] = Example Compound 235A 304 nM + Decitabine 113 nM
[21] = Example Compound 235A 456 nM + Decitabine 169 nM
[22] = Example Compound 235A 684 nM + Decitabine 254 nM
[23] = Example Compound 14 1970 nM + Decitabine 1340 nM
[24] = Example Compound 14 2950 nM + Decitabine 2000 nM
[25] = Example Compound 14 4420 nM + Decitabine 3000 nM
[26] = Example Compound 209A 635 nM + Decitabine 2000 nM
[27] = Example Compound 235A 520 nM + Decitabine 1340 nM
[28] = Example Compound 235A 780 nM + Decitabine 2020 nM
[29] = Example Compound 235A 1170 nM + Decitabine 3020 nM
[30] = Example Compound 5 370 nM + Fludarabine nucleoside 6150 nM
[31] = Example Compound 5 555 nM + Fludarabine nucleoside 9220 nM
[32] = Example Compound 14 778 nM + Fludarabine nucleoside 6150 nM
[33] = Example Compound 14 1170 nM + Fludarabine nucleoside 9250 nM
[34] = Example Compound 235A 304 nM + Fludarabine nucleoside 9220 nM
[35] = Example Compound 14 874 nM + Fludarabine nucleoside 5930 nM
[36] = Example Compound 14 1310 nM + Fludarabine nucleoside 8890 nM
[37] = Example Compound 14 1970 nM + Fludarabine nucleoside 13400 nM
[38] = Example Compound 14 2950 nM + Fludarabine nucleoside 20000 nM
[39] = Example Compound 209A 188 nM + Fludarabine nucleoside 5930 nM
[40] = Example Compound 209A 282 nM + Fludarabine nucleoside 8890 nM
[41] = Example Compound 209A 635 nM + Fludarabine nucleoside 20000 nM
[42] = Example Compound 235A 520 nM + Fludarabine nucleoside 8870 nM
[43] = Example Compound 235A 780 nM + Fludarabine nucleoside 13300 nM
[44] = Example Compound 235A 1170 nM + Fludarabine nucleoside 20000 nM
[45] = Example Compound 235A 1750 nM + Fludarabine nucleoside 29900 nM
[46] = Example Compound 14 4420 nM + Gemcitabine 8.38 nM
[47] = Example Compound 209A 635 nM + Gemcitabine 5.60 nM
[48] = Example Compound 209A 952 nM + Gemcitabine 8.39 nM
[49] = Example Compound 235A 780 nM + Gemcitabine 5.60 nM
[50] = Example Compound 235A 1170 nM + Gemcitabine 8.40 nM
[51] = Example Compound 5 1050 nM + Gemcitabine 5.28 nM
[52] = Example Compound 14 2080 nM + Gemcitabine 5.28 nM
[53] = Example Compound 14 3120 nM + Gemcitabine 7.92 nM
[54] = Example Compound 209A 508 nM + Gemcitabine 5.28 nM
[55] = Example Compound 235A 722 nM + Gemcitabine 5.28 nM
[56] = Example Compound 5 164 nM + Guadecitabine 11.8 nM
[57] = Example Compound 5 247 nM + Guadecitabine 17.8 nM
[58] = Example Compound 5 370 nM + Guadecitabine 26.7 nM
[59] = Example Compound 5 555 nM + Guadecitabine 40.1 nM
[60] = Example Compound 5 833 nM + Guadecitabine 60.2 nM
[61] = Example Compound 5 1250 nM + Guadecitabine 90.3 nM
[62] = Example Compound 14 519 nM + Guadecitabine 17.8 nM
[63] = Example Compound 14 778 nM + Guadecitabine 26.7 nM
[64] = Example Compound 14 1170 nM + Guadecitabine 40.2 nM
[65] = Example Compound 14 1750 nM + Guadecitabine 60.1 nM
[66] = Example Compound 14 2630 nM + Guadecitabine 90.3 nM
[67] = Example Compound 209A 96.6 nM + Guadecitabine 17.8 nM
[68] = Example Compound 209A 217 nM + Guadecitabine 40.0 nM
[69] = Example Compound 209A 326 nM + Guadecitabine 60.1 nM
[70] = Example Compound 235A 90.1 nM + Guadecitabine 11.9 nM
[71] = Example Compound 235A 135 nM + Guadecitabine 17.8 nM
[72] = Example Compound 235A 304 nM + Guadecitabine 40.1 nM
[73] = Example Compound 235A 456 nM + Guadecitabine 60.1 nM
[74] = Example Compound 235A 684 nM + Guadecitabine […]
[75] = Example Compound 14 1310 nM + Guadecitabine 326 nM
[76] = Example Compound 14 1970 nM + Guadecitabine 490 nM
[77] = Example Compound 14 2950 nM + Guadecitabine 734 nM
[78] = Example Compound 14 4420 nM + Guadecitabine 1100 nM
[79] = Example Compound 209A 635 nM + Guadecitabine 734 nM
[80] = Example Compound 235A 520 nM + Guadecitabine 469 nM
[81] = Example Compound 235A 780 nM + Guadecitabine 704 nM
[82] = Example Compound 235A 1170 nM + Guadecitabine 1060 nM

## Nc1ncn([C@H]2C[C@H](O)[C@@H](CO)O2)c(=O)n1 [Decitabine, decitabine]
[1]; [4]
  CI value: 0.685
  Fa value: 0.3382
[1]; [5]
  CI value: 0.725
  Fa value: 0.4753
[1]; [6]
  CI value: 0.709
  Fa value: 0.6924
[1]; [7]
  CI value: 0.693
  Fa value: 0.8888
[1]; [8]
  CI value: 0.608
  Fa value: 0.9844
[1]; [9]
  CI value: 0.707
  Fa value: 0.3361
[1]; [10]
  CI value: 0.872
  Fa value: 0.4089
[1]; [11]
  CI value: 0.849
  Fa value: 0.5994
[1]; [12]
  CI value: 0.717
  Fa value: 0.8350
[1]; [13]
  CI value: 0.599
  Fa value: 0.9588
[1]; [14]
  CI value: 0.793
  Fa value: 0.2551
[1]; [15]
  CI value: 0.839
  Fa value: 0.3812
[1]; [16]
  CI value: 0.715
  Fa value: 0.8536
[1]; [17]
  CI value: 0.627
  Fa value: 0.9689
[1]; [18]
  CI value: 0.725
  Fa value: 0.2126
[1]; [19]
  CI value: 0.757
  Fa value: 0.3356
[1]; [20]
  CI value: 0.760
  Fa value: 0.7532
[1]; [21]
  CI value: 0.687
  Fa value: 0.9339
[1]; [22]
  CI value: 0.535
  Fa value: 0.9935
[2]; [23]
  CI value: 0.542
  Fa value: 0.3867
[2]; [24]
  CI value: 0.577
  Fa value: 0.5183
[2]; [25]
  CI value: 0.602
  Fa value: 0.6737
[2]; [26]
  CI value: 0.569
  Fa value: 0.5615
[2]; [27]
  CI value: 0.570
  Fa value: 0.2897
[2]; [28]
  CI value: 0.567
  Fa value: 0.4383
[2]; [29]
  CI value: 0.650
  Fa value: 0.5537

## Nc1nc(F)nc2c1ncn2[C@@H]1O[C@H](CO)[C@@H](O)[C@@H]1O [Fludarabine nucleoside, fludarabine nucleoside]
[1]; [30]
  CI value: 0.739
  Fa value: 0.6600
[1]; [31]
  CI value: 0.293
  Fa value: 0.9981
[1]; [32]
  CI value: 0.786
  Fa value: 0.5954
[1]; [33]
  CI value: 0.296
  Fa value: 0.9984
[1]; [34]
  CI value: 0.320
  Fa value: 0.9988
[2]; [35]
  CI value: 0.549
  Fa value: 0.3063
[2]; [36]
  CI value: 0.387
  Fa value: 0.7007
[2]; [37]
  CI value: 0.377
  Fa value: 0.8610
[2]; [38]
  CI value: 0.537
  Fa value: 0.8736
[2]; [39]
  CI value: 0.558
  Fa value: 0.3666
[2]; [40]
  CI value: 0.386
  Fa value: 0.7059
[2]; [41]
  CI value: 0.515
  Fa value: 0.8634
[2]; [42]
  CI value: 0.568
  Fa value: 0.4460
[2]; [43]
  CI value: 0.423
  Fa value: 0.7798
[2]; [44]
  CI value: 0.504
  Fa value: 0.8525
[2]; [45]
  CI value: 0.734
  Fa value: 0.8595

## Nc1ccn([C@@H]2O[C@H](CO)[C@@H](O)C2(F)F)c(=O)n1 [Gemcitabine, gemcitabine]
[2]; [46]
  CI value: 0.752
  Fa value: 0.8565
[2]; [47]
  CI value: 0.792
  Fa value: 0.7031
[2]; [48]
  CI value: 0.791
  Fa value: 0.8749
[2]; [49]
  CI value: 0.844
  Fa value: 0.6511
[2]; [50]
  CI value: 0.714
  Fa value: 0.8624
[3]; [51]
  CI value: 0.788
  Fa value: 0.6974
[3]; [52]
  CI value: 0.756
  Fa value: 0.6749
[3]; [53]
  CI value: 0.752
  Fa value: 0.7790
[3]; [54]
  CI value: 0.736
  Fa value: 0.6998
[3]; [55]
  CI value: 0.722
  Fa value: 0.6762

## Nc1ncn([C@H]2C[C@H](OP(=O)(O)OC[C@H]3O[C@@H](n4cnc5c(=O)[nH]c(N)nc54)C[C@@H]3O)[C@@H](CO)O2)c(=O)n1 [Guadecitabine, guadecitabine]
[1]; [56]
  CI value: 0.640
  Fa value: 0.2498
[1]; [57]
  CI value: 0.683
  Fa value: 0.3527
[1]; [58]
  CI value: 0.727
  Fa value: 0.4905
[1]; [59]
  CI value: 0.690
  Fa value: 0.7205
[1]; [60]
  CI value: 0.673
  Fa value: 0.9023
[1]; [61]
  CI value: 0.557
  Fa value: 0.9892
[1]; [62]
  CI value: 0.767
  Fa value: 0.3318
[1]; [63]
  CI value: 0.844
  Fa value: 0.4449
[1]; [64]
  CI value: 0.797
  Fa value: 0.6448
[1]; [65]
  CI value: 0.668
  Fa value: 0.8620
[1]; [66]
  CI value: 0.545
  Fa value: 0.9686
[1]; [67]
  CI value: 0.766
  Fa value: 0.4376
[1]; [68]
  CI value: 0.753
  Fa value: 0.8301
[1]; [69]
  CI value: 0.631
  Fa value: 0.9675
[1]; [70]
  CI value: 0.633
  Fa value: 0.2567
[1]; [71]
  CI value: 0.638
  Fa value: 0.4131
[1]; [72]
  CI value: 0.689
  Fa value: 0.7974
[1]; [73]
  CI value: 0.617
  Fa value: 0.9524
[1]; [74]
  CI value: 0.544
  Fa value: 0.9930
[2]; [75]
  CI value: 0.561
  Fa value: 0.2913
[2]; [76]
  CI value: 0.503
  Fa value: 0.4560
[2]; [77]
  CI value: 0.582
  Fa value: 0.5553
[2]; [78]
  CI value: 0.620
  Fa value: 0.6875
[2]; [79]
  CI value: 0.522
  Fa value: 0.6179
[2]; [80]
  CI value: 0.568
  Fa value: 0.2878
[2]; [81]
  CI value: 0.583
  Fa value: 0.4237
[2]; [82]
  CI value: 0.670
  Fa value: 0.5377
